Data published in the NIST ThermoML archive (doi:10.1016/j.jct.2012.03.003).
Numbers after ± are expanded uncertainties.

Assay: xn = mol fraction of the nth substance listed
Details: Liquid, Vibrating tube method

COc1cc2c(cc1O)CC1c3c(cc(O)c(OC)c3-2)CCN1C (stereo not given) [boldine] + CCO
Details | mass density [kg/m3]
342.92 K, 18000 kPa, x1 = 0.0074 | 778.92 ± 0.92
342.92 K, 19000 kPa, x1 = 0.0012 | 767.14 ± 0.91
342.92 K, 19000 kPa, x1 = 0.0074 | 779.83 ± 0.92
342.92 K, 20000 kPa, x1 = 0.0012 | 768.07 ± 0.91
342.92 K, 20000 kPa, x1 = 0.0074 | 780.71 ± 0.93
343.02 K, 1000 kPa, x1 = 0.0136 | 775.25 ± 0.96
343.02 K, 2000 kPa, x1 = 0.0136 | 776.31 ± 0.96
343.02 K, 3000 kPa, x1 = 0.0136 | 777.37 ± 0.96
343.02 K, 4000 kPa, x1 = 0.0136 | 778.42 ± 0.96
343.02 K, 5000 kPa, x1 = 0.0136 | 779.47 ± 0.96
343.02 K, 6000 kPa, x1 = 0.0136 | 780.52 ± 0.96
343.02 K, 7000 kPa, x1 = 0.0136 | 781.56 ± 0.97
343.02 K, 8000 kPa, x1 = 0.0136 | 782.6 ± 0.97
343.02 K, 9000 kPa, x1 = 0.0136 | 783.63 ± 0.97
343.02 K, 10000 kPa, x1 = 0.0136 | 784.63 ± 0.97
343.02 K, 11000 kPa, x1 = 0.0136 | 785.65 ± 0.97
343.02 K, 12000 kPa, x1 = 0.0136 | 786.65 ± 0.97
343.02 K, 13000 kPa, x1 = 0.0136 | 787.64 ± 0.97
343.02 K, 14000 kPa, x1 = 0.0136 | 788.62 ± 0.97
343.02 K, 15000 kPa, x1 = 0.0136 | 789.58 ± 0.98
343.02 K, 16000 kPa, x1 = 0.0136 | 790.53 ± 0.98
343.02 K, 17000 kPa, x1 = 0.0136 | 791.46 ± 0.98
343.02 K, 18000 kPa, x1 = 0.0136 | 792.39 ± 0.98
343.02 K, 19000 kPa, x1 = 0.0136 | 793.28 ± 0.98
343.02 K, 20000 kPa, x1 = 0.0136 | 794.17 ± 0.99
352.79 K, 1000 kPa, x1 = 0.0196 | 780.8 ± 0.84
352.79 K, 2000 kPa, x1 = 0.0196 | 781.92 ± 0.84
352.79 K, 3000 kPa, x1 = 0.0196 | 783.03 ± 0.84
352.79 K, 4000 kPa, x1 = 0.0196 | 784.09 ± 0.84
352.79 K, 5000 kPa, x1 = 0.0196 | 785.23 ± 0.84
352.79 K, 6000 kPa, x1 = 0.0196 | 786.32 ± 0.84
352.79 K, 7000 kPa, x1 = 0.0196 | 787.4 ± 0.85
352.79 K, 8000 kPa, x1 = 0.0196 | 788.47 ± 0.85
352.79 K, 9000 kPa, x1 = 0.0196 | 789.53 ± 0.85
352.79 K, 10000 kPa, x1 = 0.0196 | 790.58 ± 0.85
352.79 K, 11000 kPa, x1 = 0.0196 | 791.62 ± 0.85
352.79 K, 12000 kPa, x1 = 0.0196 | 792.64 ± 0.85
352.79 K, 13000 kPa, x1 = 0.0196 | 793.65 ± 0.85
352.79 K, 14000 kPa, x1 = 0.0196 | 794.65 ± 0.86
352.79 K, 15000 kPa, x1 = 0.0196 | 795.64 ± 0.86
352.79 K, 16000 kPa, x1 = 0.0196 | 796.61 ± 0.86
352.79 K, 17000 kPa, x1 = 0.0196 | 797.57 ± 0.86
352.79 K, 18000 kPa, x1 = 0.0196 | 798.51 ± 0.86
352.79 K, 19000 kPa, x1 = 0.0196 | 799.44 ± 0.87
352.79 K, 20000 kPa, x1 = 0.0196 | 800.36 ± 0.87
352.81 K, 1000 kPa, x1 = 0.0012 | 738.74 ± 0.88
352.81 K, 1000 kPa, x1 = 0.0136 | 765.67 ± 0.96
352.81 K, 2000 kPa, x1 = 0.0012 | 739.95 ± 0.89
352.81 K, 2000 kPa, x1 = 0.0136 | 766.82 ± 0.96
352.81 K, 3000 kPa, x1 = 0.0012 | 741.15 ± 0.88
352.81 K, 3000 kPa, x1 = 0.0136 | 767.97 ± 0.96
352.81 K, 4000 kPa, x1 = 0.0012 | 742.33 ± 0.88
352.81 K, 4000 kPa, x1 = 0.0136 | 769.1 ± 0.96
352.81 K, 5000 kPa, x1 = 0.0012 | 743.51 ± 0.89
352.81 K, 5000 kPa, x1 = 0.0136 | 770.24 ± 0.96
352.81 K, 6000 kPa, x1 = 0.0012 | 744.68 ± 0.89
352.81 K, 6000 kPa, x1 = 0.0136 | 771.36 ± 0.96
352.81 K, 7000 kPa, x1 = 0.0012 | 745.85 ± 0.89
352.81 K, 7000 kPa, x1 = 0.0136 | 772.46 ± 0.96
352.81 K, 8000 kPa, x1 = 0.0012 | 746.99 ± 0.89
352.81 K, 8000 kPa, x1 = 0.0136 | 773.56 ± 0.96
352.81 K, 9000 kPa, x1 = 0.0012 | 748.13 ± 0.89
352.81 K, 9000 kPa, x1 = 0.0136 | 774.65 ± 0.96
352.81 K, 10000 kPa, x1 = 0.0012 | 749.26 ± 0.89
352.81 K, 10000 kPa, x1 = 0.0136 | 775.73 ± 0.97
352.81 K, 11000 kPa, x1 = 0.0012 | 750.37 ± 0.9
352.81 K, 11000 kPa, x1 = 0.0136 | 776.81 ± 0.97
352.81 K, 12000 kPa, x1 = 0.0012 | 751.47 ± 0.9
352.81 K, 12000 kPa, x1 = 0.0136 | 777.86 ± 0.97
352.81 K, 13000 kPa, x1 = 0.0012 | 752.55 ± 0.9
352.81 K, 13000 kPa, x1 = 0.0136 | 778.9 ± 0.97
352.81 K, 14000 kPa, x1 = 0.0012 | 753.61 ± 0.9
352.81 K, 14000 kPa, x1 = 0.0136 | 779.93 ± 0.97
352.81 K, 15000 kPa, x1 = 0.0012 | 754.67 ± 0.91
352.81 K, 15000 kPa, x1 = 0.0136 | 780.95 ± 0.97
